Measured values taken from patent publication US20070275911A1, “Targeted Drug-Formaldehyde Conjugates and Methods of Making and Using the Same” (priority 2003, published 2007).
Read-outs that look alike come from different tables or passages of the source.

How the values were obtained:
[1] = molecular target: T1, human AR (Homo sapiens, UniProt P10275); experiment: biochemical; type: binding
T1 construct: expressed in transfected cells; host or cells: PC3/AR cells (gift of Dr. Kerry Burnstein, University of Miami); cytosolic fraction of sonicated lysate
T1 sequence (P10275 1-920): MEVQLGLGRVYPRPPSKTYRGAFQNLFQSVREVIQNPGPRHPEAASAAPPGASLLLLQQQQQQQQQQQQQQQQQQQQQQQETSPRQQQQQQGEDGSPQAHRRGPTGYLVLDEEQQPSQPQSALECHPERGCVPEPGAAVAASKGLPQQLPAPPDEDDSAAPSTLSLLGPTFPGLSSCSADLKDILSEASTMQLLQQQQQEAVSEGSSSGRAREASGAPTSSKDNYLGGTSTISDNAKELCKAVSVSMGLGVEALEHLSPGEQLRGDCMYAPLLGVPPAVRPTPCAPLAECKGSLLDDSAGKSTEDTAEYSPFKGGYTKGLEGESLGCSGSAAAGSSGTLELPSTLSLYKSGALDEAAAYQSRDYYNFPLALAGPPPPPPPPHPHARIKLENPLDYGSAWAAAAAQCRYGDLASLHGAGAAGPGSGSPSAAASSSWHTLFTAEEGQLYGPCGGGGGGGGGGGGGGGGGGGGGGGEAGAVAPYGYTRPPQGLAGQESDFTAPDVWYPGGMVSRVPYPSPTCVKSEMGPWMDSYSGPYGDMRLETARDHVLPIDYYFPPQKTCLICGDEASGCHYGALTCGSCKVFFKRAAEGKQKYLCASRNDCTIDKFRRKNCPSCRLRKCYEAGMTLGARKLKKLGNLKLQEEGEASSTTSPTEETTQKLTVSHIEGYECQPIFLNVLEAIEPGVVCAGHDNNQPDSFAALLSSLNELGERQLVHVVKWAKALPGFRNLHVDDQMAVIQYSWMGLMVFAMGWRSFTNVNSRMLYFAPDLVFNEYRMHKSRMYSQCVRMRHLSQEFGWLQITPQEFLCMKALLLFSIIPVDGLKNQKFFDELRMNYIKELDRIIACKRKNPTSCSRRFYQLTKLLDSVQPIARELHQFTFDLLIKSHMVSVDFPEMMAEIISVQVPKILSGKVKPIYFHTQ

[2] = tested on: AR-GFP receptor; type: cell-based; conditions: for inhibition of the action of 1.0 nM Mibolerone on AR-GFP: co-treatment with 1.0 nM Mibolerone
Method: PC3 cells were, therefore, grown in 6 well plates and transiently transfected with a plasmid containing the AR-GFP construct obtained from Dr. Arun Roy (UTHSC; San Antonio, Tex.).
This cell suspension was dispensed in 2 mL aliquots into 6-well tissue culture plates. […] To each solution was added 2 μL of a 800 μg/mL solution of the pEGFP-C2 rcAR plasmid in Millipore water. After gentle mixing, the transfection cocktail was allowed to incubate at room temperature for 40 min. […] The growth medium was again replaced with 1 mL of phenol red-free RPMI supplemented with dextran-coated charcoal-stripped FBS. Candidate AR-GFP expressing cells in each well were identified and marked before an appropriate concentrations of the test compounds were added in 10 μL of sterile DMSO.

[3] = molecular target: T2, estrogen receptor (Homo sapiens, UniProt P03372); experiment: Estrogen receptor competitive binding assay (3H-E2, MCF-7 cell lysate); conditions: relative to E/Z-4-OHT = 100
T2 construct: endogenous in cells; host or cells: MCF-7 cells (ATCC); 225,000 g supernatant of sonicated lysate

[4] = Hydrolysis of anthracycline-formaldehyde N-Mannich bases followed by HPLC; conditions: for stability under AR binding assay conditions: reaction buffer, 30 min incubation at 4° C., HPLC
Method: The area under the curve for the N-Mannich base was determined at each time point and was used to establish the kinetics of decomposition, using regression software. Hydrolysis of AOM-doxsaliform was carried out in pH 8.0 100 mM sodium phosphate buffer at 37° C. AOM-doxsaliform was dissolved in 48.0 μL DMSO and this solution was diluted into phosphate buffer to give 4.8 mL of an […] solution containing 1% DMSO. To this solution was added 6 μL of pig liver esterase (0.8 units/μL; Sigma; Milwaukee, Wis.) to achieve a final concentration of 1.0 units/mL. […] Brief centrifugation served to pellet the insoluble fraction. The drug solution was then transferred to a round bottom flask and concentrated by brief rotary-evaporation at 20° C. Reverse phase HPLC was used to analyze the extent of hydrolysis.
Hydrolysis of the N-Mannich bases, prepared from either doxorubicin or daunorubicin and the respective amides, at 37° C. in pH 7.4 triethylammonium acetate (TEAA) buffer (20 mM) containing 10-30% MeOH was monitored by reverse phase HPLC. […] Identification of a less robust construct that could be used to rapidly deliver the active Schiff base metabolite of doxorubicin to a growing tumor was undertaken.

[5] = tested on: PC3/AR and PC3/neo cells; conditions: for intracellular distribution of fluorescence over time: 3 h treatment / over time
Method: The fluorescence of doxorubicin can be monitored in order to determine the rate of uptake and intracellular distribution of the anthraquinone fluorophore.
This cell suspension was dispensed in 2 mL aliquots into 6-well tissue culture plates. Plates were then incubated for 36 h at 37° C. in a humidified atmosphere of 5% CO2 and 95% air. The medium was replaced with 1 mL of phenol red-free RPMI 1640 growth medium supplemented with 10% dextran-coated charcoal stripped FBS prior to addition of the test compound. The appropriate compound was dissolved in DMSO and the concentration was adjusted to 50-200 μM by measuring the solution absorbance at 480 nm. Addition of 10 μL of the appropriate doxorubicin or prodrug solution was followed by incubation at 37° C. as indicated. The drug solution in individual wells was removed at the appropriate time and the cells were washed with 1 mL of the phenol red-free growth medium. The washed cells were then supplemented with 1 mL of phenol-red free growth medium for imaging.

[6] = vs 1.0 nM 3H-Mibolerone, PC3/AR cell lysate, 4° C. (Table 4, Example 3 numbering)
[7] = vs 1.0 nM 3H-Mibolerone, PC3/AR cell lysate, 4° C., 30 min (Table 3, Example 2 numbering)
[8] = relative binding affinity (Table 4, Example 3 numbering)

T2 sequence (P03372 whole entry): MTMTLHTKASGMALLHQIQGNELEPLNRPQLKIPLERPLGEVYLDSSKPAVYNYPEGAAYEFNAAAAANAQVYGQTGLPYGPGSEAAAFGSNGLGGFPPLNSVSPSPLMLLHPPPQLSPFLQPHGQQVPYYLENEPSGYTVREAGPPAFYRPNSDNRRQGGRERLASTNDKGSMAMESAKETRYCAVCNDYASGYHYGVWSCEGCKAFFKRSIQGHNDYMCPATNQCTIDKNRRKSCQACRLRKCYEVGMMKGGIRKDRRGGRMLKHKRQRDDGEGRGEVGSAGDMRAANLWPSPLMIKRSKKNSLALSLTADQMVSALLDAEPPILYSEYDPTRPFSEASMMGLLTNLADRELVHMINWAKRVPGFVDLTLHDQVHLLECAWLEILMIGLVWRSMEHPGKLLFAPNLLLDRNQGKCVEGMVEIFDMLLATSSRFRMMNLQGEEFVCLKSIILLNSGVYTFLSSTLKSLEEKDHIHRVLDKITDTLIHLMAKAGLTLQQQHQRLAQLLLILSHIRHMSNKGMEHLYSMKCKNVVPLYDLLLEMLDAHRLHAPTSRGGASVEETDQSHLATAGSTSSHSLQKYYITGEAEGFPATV

**Q.** With `CC1(C)NC(=O)N(c2ccc(C#N)c(C(F)(F)F)c2)C1=O` [2f, 4-(4,4-Dimethyl-2,5-dioxo-imidazolidin-1-yl)-2-trifluoromethylbenzonitrile] as the compound, how does the IC50 [1] read?
**A.** 6 nM

**Q.** What about the RBA [1] of the same compound?
**A.** 150

**Q.** And the “RBA as fraction of nilutamide binding” value [1]?
**A.** 150%

**Q.** What about the “nuclear translocation of AR-GFP” value ([2]; concentration not given) of the same compound?
**A.** induce partial translocation

**Q.** For `CCCC(=O)OCOc1ccc(COCC#CCN2C(=O)N(c3ccc(C#N)c(C(F)(F)F)c3)C(=O)C2(C)C)cc1C(N)=O` [6b], which “nuclear translocation of AR-GFP” value ([2]; concentration not given) is on record?
**A.** causing nuclear translocation of the AR upon binding

**Q.** For `CC1(C)C(=O)N(c2ccc(C#N)c(C(F)(F)F)c2)C(=O)N1CCOCCOCc1ccc(O)c(C(N)=O)c1` [8a, 5-(2-{2-[3-(4-Cyano-3-trifluoromethyl-phenyl)-5,5-dimethyl-2,4-dioxo-imidazolidin-1-yl]-ethoxy}-ethoxymethyl)-2-hydroxy-benzamide], which IC50 [1, 6] is on record?
**A.** 77 nM

**Q.** And the IC50 [1, 7]?
**A.** 77 nM

**Q.** What does the source list for `CC1(C)C(=O)N(c2ccc(C#N)c(C(F)(F)F)c2)C(=O)N1CCOCCOCCOCc1ccc(O)c(C(N)=O)c1` [8b, 5-[2-(2-{2-[3-(4-Cyano-3-trifluoromethyl-phenyl)-5,5-dimethyl-2,4-dioxo-imidazolidin-1-yl]-ethoxy}-ethoxy)-ethoxymethyl]-2-hydroxy-benzamide]?
**A.** IC50 [1, 6]: 332 nM; IC50 [1, 7]: 332 nM

**Q.** With `CC1(C)C(=O)N(c2ccc(C#N)c(C(F)(F)F)c2)C(=O)N1CC#CCOCc1ccc(O)c(C(N)=O)c1` [8c, 5-{4-[3-(4-Cyano-3-trifluoromethyl-phenyl)-5,5-dimethyl-2,4-dioxo-imidazolidin-1-yl]-but-2-ynyloxymethyl}-2-hydroxy-benzamide] as the compound, how does the IC50 [1, 7] read?
**A.** 49 nM

**Q.** Which “RBA^OHT” value [3] does the source give for `CCC(=C(c1ccc(O)cc1)c1ccc(OCCN(C)CCON=Cc2ccc(O)c(C(N)=O)c2)cc1)c1ccccc1` [10a] here?
**A.** 1.7

**Q.** For `CCC(=C(c1ccc(O)cc1)c1ccc(OCCN(C)CCOCCON=Cc2ccc(O)c(C(N)=O)c2)cc1)c1ccccc1` [10b, E/Z-2-Hydroxy-5-[(2-{2-[(2-{4-[1-(4-hydroxy-phenyl)-2-phenyl-but-1-enyl]-phenoxy}-ethyl)-methyl-amino]-ethoxy}-ethoxyimino)-methyl]-benzamide], which “RBA^OHT” value [3] is on record?
**A.** 3.3

**Q.** Which “RBA^OHT” value [3] does the source give for `CCC(=C(c1ccc(O)cc1)c1ccc(OCCN(C)CCOCCOCCON=Cc2ccc(O)c(C(N)=O)c2)cc1)c1ccccc1` [10c] here?
**A.** 3.3

**Q.** Which results are given for `CC1(C)C(=O)N(c2ccc(C#N)c(C(F)(F)F)c2)C(=O)N1CCCCN1CCN(CCOCc2ccc(O)c(C(N)=O)c2)CC1` [12a, 5-[2-(4-{4-[3-(4-Cyano-3-trifluoromethyl-phenyl)-5,5-dimethyl-2,4-dioxo-imidazolidin-1-yl]-butyl}-piperazin-1-yl)-ethoxymethyl]-2-hydroxy-benzamide]?
**A.** RBA [1]: <1; RBA [1, 8]: <1; IC50 [1, 6]: > 1000 nM; inhibition of the action of 1.0 nM Mibolerone on AR-GFP [2]: not capable of inhibiting the action of 1.0 nM Mibolerone; nuclear translocation of AR-GFP ([2]; concentration not given): does not instigate translocation

**Q.** Which RBA [1] does the source give for `CC1(C)C(=O)N(c2ccc(C#N)c(C(F)(F)F)c2)C(=O)N1CCOCCN1CCN(CCOCc2ccc(O)c(C(N)=O)c2)CC1` [12b] here?
**A.** 3

**Q.** What about the RBA [1, 8] of the same compound?
**A.** 3

**Q.** What about the IC50 [1, 6] of the same compound?
**A.** 346 nM

**Q.** What about the IC50 [1, 7] of the same compound?
**A.** 346 nM

**Q.** And the “inhibition of the action of 1.0 nM Mibolerone on AR-GFP” value [2]?
**A.** not capable of inhibiting the action of 1.0 nM Mibolerone

**Q.** And the “nuclear translocation of AR-GFP” value ([2]; concentration not given)?
**A.** does not instigate translocation

**Q.** What does the source list for `COc1cccc2c1C(=O)c1c(O)c3c(c(O)c1C2=O)C[C@@](O)(C(=O)CO)C[C@@H]3O[C@H]1C[C@H](NCNC(=O)c2ccccc2OCOC(C)=O)[C@H](O)[C@H](C)O1` [AOM-doxsaliform, N-[(2-Acetoxymethyloxy)-benzamidomethyl]-doxorubicin]?
**A.** release of doxorubicin from acetoxymethylene-protected derivative ([4]; 37° C., pH 7.3 RPMI 1640, 3 h of observation): no hydrolysis was evident; intracellular distribution of fluorescence over time [5]: accumulate, at least to some extent over time (>3 h), in the nuclei

**Q.** Which “nuclear translocation of AR-GFP” value ([2]; 1.0 nM) does the source give for `C[C@@H]1CC2=CC(=O)CC[C@@H]2[C@H]2CC[C@@]3(C)[C@@H](CC[C@]3(C)O)[C@@H]21` [Mibolerone, reference compound] here?
**A.** causes nuclear translocation of the AR-GFP receptor

**Q.** Which results are given for `CCCC(=O)OCOc1ccc(COCC#CCN2C(=O)N(c3ccc(C#N)c(C(F)(F)F)c3)C(=O)C2(C)C)cc1C(=O)NCNC1CC(OC2CC(O)(C(=O)CO)Cc3c(O)c4c(c(O)c32)C(=O)c2c(OC)cccc2C4=O)OC(C)C1O` (stereo not shown) [compound 10, N-(5-{4-[3-(4-Cyano-3-trifluoromethyl-phenyl)-5,5-dimethyl-2,4-dioxo-imidazolidin-1-yl]-but-2-ynyloxymethyl}-2-butyryloxymethoxybenzamidomethyl)-doxorubicin]?
**A.** stability under AR binding assay conditions [4]: stable under the assay conditions; RBA [1, 8]: 14; IC50 [1, 6]: 63 nM; nuclear translocation of AR-GFP ([2]; 1.0 μM (up to)): did not instigate translocation into the nucleus; inhibition of the action of 1.0 nM Mibolerone on AR-GFP [2]: did serve to inhibit the action of 1.0 nM Mibolerone; intracellular distribution of fluorescence over time [5]: remains primarily cytosolic over time; initial intracellular distribution of fluorescence ([5]; upon initial treatment, 500 nM): predominantly cytosolic

**Q.** For `COc1cccc2c1C(=O)c1c(O)c3c(c(O)c1C2=O)C[C@@](O)(C(=O)CO)C[C@@H]3OC1C[C@H](NCNC(=O)c2cc(COCC#CCN3C(=O)N(c4ccc(C#N)c(C(F)(F)F)c4)C(=O)C3(C)C)ccc2O)[C@H](O)[C@H](C)O1` (stereo partly shown) [compound 13, N-(5-{4-[3-(4-Cyano-3-trifluoromethyl-phenyl)-5,5-dimethyl-2,4-dioxo-imidazolidin-1-yl]-but-2-ynyloxymethyl)-2-hydroxy-benzamidomethyl)-doxorubicin], which “stability under AR binding assay conditions” value [4] is on record?
**A.** no appreciable hydrolysis

**Q.** What about the “stability under AR binding assay conditions” value ([4]; listed as 9) of the same compound?
**A.** stable under the assay conditions

**Q.** What about the IC50 [1] of the same compound?
**A.** 90 nM

**Q.** And the RBA [1]?
**A.** 10

**Q.** And the RBA [1, 8]?
**A.** 10

**Q.** What about the “intracellular distribution of fluorescence over time” value [5] of the same compound?
**A.** primarily localized to the nucleus
